Consider one compound from publication PMC7313537 (PLoS ONE, 2020).

In one test the target is MINK (Homo sapiens, UniProt Q8N4C8). Description: Enzyme selectivity panel. Format: biochemical. The note with it: 1 mM ATP.
A further test deals with xenografted tumor models. Description: Combination with cisplatin in xenografted tumor models. The class given is in vivo. As to conditions: combination of INCB054828 with cisplatin.
In the next test the target is STK4 (Homo sapiens, UniProt Q13043). Briefly: Enzyme selectivity panel. Format: biochemical. The note with it: 1 mM ATP.
The next test deals with DMS-114 (lung cancer). Description: Cell viability assay (CellTiter-Glo). Format: cell-based. The note with it: Homo sapiens, FGFR1 amplification, 72 hours, read-out: Mean GI50 ± S.D.
The target in the next test is T1, AXL (Homo sapiens, UniProt P30530).
T1 construct: purchased In-house HTRF panel (56 kinases) and PerkinElmer (161-kinase panel)
Briefly: Enzyme selectivity panel. The class given is biochemical. The note with it: 1 mM ATP.

Test [1] concerns RT-112 (FGFR3-TACC3 fusion positive) bladder carcinoma model. Description: RT-112 xenograft efficacy. Format: in vivo, Rowett Nude rats. The note with it: oral, 14 days. As to the method: The inoculation of 0.5 mL was performed subcutaneously on the flank. The treatment of tumor bearing rats was started 8 days after tumor inoculation.
The subject of another test is HCC-422. Briefly: Cell viability assay (CellTiter-Glo). The class given is cell-based. The note with it: Lung cancer; lacking FGFR alterations.
In another test the target is PKCD (Homo sapiens, UniProt Q05655). Description: Enzyme selectivity panel. Format: biochemical. The note with it: 1 mM ATP.

Bounds are passed on as bounds.

T1 sequence (P30530 26-894, species assumed): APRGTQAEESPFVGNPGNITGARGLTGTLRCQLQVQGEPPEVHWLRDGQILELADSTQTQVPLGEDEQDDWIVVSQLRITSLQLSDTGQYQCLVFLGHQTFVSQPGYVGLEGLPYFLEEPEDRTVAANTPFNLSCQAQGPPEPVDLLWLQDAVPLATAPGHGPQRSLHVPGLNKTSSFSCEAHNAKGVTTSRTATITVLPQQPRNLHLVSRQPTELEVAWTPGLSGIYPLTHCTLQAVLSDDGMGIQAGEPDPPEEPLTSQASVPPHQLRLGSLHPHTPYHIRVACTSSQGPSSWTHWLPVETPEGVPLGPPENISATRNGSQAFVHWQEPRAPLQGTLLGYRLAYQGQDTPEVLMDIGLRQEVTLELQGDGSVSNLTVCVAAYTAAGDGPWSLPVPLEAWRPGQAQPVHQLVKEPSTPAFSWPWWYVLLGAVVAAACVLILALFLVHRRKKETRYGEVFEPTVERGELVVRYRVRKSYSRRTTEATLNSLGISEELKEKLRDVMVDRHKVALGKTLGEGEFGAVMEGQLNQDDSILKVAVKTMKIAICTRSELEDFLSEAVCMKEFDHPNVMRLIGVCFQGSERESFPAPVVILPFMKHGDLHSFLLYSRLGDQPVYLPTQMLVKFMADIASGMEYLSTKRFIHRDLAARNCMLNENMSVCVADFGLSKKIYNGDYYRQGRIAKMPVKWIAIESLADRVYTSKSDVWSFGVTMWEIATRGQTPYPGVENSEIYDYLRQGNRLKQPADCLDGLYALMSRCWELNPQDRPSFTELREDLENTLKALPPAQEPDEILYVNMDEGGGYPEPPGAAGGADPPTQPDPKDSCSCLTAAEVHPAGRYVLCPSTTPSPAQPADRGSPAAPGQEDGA
Sequence of MINK (Q8N4C8 whole entry): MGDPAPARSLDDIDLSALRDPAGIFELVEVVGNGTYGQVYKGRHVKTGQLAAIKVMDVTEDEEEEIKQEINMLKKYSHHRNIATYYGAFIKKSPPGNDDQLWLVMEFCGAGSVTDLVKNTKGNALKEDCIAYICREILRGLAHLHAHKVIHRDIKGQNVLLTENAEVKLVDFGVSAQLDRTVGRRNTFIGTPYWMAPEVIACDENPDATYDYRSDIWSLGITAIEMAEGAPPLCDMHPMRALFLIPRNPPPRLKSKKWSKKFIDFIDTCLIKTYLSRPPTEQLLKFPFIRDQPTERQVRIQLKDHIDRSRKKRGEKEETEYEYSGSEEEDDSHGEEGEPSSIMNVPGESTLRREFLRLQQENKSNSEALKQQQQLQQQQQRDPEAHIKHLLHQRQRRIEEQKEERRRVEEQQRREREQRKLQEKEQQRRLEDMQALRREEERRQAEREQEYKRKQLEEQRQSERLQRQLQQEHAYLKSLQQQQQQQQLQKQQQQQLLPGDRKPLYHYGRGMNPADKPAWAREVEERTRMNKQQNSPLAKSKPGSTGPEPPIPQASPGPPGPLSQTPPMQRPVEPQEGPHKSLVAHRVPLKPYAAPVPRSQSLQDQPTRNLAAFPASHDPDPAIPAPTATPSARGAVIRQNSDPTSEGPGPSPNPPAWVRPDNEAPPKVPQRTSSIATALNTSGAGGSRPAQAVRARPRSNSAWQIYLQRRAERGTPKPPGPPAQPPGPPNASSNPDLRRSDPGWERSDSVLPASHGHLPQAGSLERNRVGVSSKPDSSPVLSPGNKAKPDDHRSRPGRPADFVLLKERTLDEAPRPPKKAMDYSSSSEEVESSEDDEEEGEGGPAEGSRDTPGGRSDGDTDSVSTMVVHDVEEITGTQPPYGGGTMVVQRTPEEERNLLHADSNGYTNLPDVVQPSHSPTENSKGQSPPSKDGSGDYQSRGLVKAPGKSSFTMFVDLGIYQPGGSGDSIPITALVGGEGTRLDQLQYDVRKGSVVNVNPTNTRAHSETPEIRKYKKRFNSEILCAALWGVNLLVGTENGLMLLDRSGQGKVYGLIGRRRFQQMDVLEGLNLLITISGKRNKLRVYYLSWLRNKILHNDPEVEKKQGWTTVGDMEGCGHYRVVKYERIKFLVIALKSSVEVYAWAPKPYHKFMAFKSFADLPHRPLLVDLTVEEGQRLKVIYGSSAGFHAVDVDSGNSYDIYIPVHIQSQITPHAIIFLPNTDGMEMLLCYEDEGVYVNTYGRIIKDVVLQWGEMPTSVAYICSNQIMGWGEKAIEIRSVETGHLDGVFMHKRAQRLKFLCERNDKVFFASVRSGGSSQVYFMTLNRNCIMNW
Sequence of PKCD (Q05655 whole entry, species assumed): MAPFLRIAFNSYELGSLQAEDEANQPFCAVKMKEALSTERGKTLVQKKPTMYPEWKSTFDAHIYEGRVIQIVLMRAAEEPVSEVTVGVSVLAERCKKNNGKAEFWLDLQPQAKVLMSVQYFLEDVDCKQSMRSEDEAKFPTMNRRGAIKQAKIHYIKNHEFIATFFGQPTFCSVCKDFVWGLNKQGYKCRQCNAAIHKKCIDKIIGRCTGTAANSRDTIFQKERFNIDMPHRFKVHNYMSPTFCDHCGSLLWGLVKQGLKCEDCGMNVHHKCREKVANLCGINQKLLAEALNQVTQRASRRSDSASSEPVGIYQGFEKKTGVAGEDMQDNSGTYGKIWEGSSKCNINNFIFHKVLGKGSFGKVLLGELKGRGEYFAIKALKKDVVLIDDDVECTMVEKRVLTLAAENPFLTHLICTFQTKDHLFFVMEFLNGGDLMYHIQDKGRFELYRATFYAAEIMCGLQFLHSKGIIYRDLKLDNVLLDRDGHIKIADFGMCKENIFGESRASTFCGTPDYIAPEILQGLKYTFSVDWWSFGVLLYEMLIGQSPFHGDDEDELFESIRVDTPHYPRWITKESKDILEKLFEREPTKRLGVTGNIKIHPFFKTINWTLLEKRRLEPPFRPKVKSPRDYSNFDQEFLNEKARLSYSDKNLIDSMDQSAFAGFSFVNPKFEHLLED
Sequence of STK4 (Q13043 whole entry, species assumed): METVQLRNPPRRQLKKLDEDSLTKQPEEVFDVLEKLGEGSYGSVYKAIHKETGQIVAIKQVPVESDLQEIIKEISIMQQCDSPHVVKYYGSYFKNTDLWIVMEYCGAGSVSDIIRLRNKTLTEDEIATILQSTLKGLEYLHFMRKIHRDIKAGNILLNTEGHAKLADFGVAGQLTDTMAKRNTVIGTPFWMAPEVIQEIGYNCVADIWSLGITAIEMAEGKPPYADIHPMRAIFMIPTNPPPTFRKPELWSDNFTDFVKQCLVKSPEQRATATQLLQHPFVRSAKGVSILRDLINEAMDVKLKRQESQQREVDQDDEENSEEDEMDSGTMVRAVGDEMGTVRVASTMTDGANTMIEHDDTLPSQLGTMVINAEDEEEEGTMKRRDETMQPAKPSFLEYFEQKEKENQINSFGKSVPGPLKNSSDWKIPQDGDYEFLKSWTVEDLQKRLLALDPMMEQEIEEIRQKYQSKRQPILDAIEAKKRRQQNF
Protocol for AXL: (§1) The kinase assays were carried out at room temperature in HEPES 50 mM, pH 7.0, NaN3 0.02%, BSA 0.01%, Orthovanadate 0.1 mM, DTT 1 mM, MgCl2 10 mM in a final volume of 10 µL. Test compounds were transferred to the plate wells by ECHO liquid handler (Labcyte, San Jose, CA) with 0.5% dimethyl sulfoxide (DMSO) in the final assay. Peptide/kinase mixtures were diluted in the appropriate enzymatic buffer and 5µL of the mixture was added to a 384-well small volume black plate. Reactions were initiated by the addition of 5 µL ATP in reaction buffer, the final reaction mixture consisted of 500 nM peptide substrate, 1 mM ATP, and appropriate amount of specific kinase. […] The plates were then sealed and centrifuged at 1800 rpm for 2 minutes. […] Half maximal inhibitory concentration (IC50) determination was performed by fitting the curve of percent control activity versus the log of the compound concentration using the GraphPad Prism 6.0 software.
Protocol for MINK: as §1
Protocol for PKCD: as §1
Protocol for STK4: as §1

`CCN1C(=O)N(c2c(F)c(OC)cc(OC)c2F)Cc2cnc3[nH]c(CN4CCOCC4)cc3c21` [INCB054828, pemigatinib]: the IC50 against MINK, on STK4, at AXL and at PKCD was over 10 µM throughout. Moreover, the “benefit of combination with cisplatin over either single agent” value in the test on xenografted tumor models is recorded as “significant benefit over either single agent”. Also, the GI50 is 0.027 µM with DMS-114 (lung cancer) and over 5 µM with HCC-422. The tumor growth inhibition entry in test [1] (0.3 mg/kg once daily) and in test [1] (1 mg/kg once daily) was “significant tumor growth inhibition” in each case.
